Values quoted from earlier work as cited in patent US20070083941A1, “Rat TRPM7 polynucleotide and encoded protein” (Wyeth, priority 2005, published 2007).

Target: TRPM7 (Homo sapiens, UniProt Q96QT4)
Conditions: high concentrations of intracellular MgATP and Mg^2+; basal activity of TRPM7; read-out: IC50 of inhibition of TRPM7

Sequence of TRPM7 (Q96QT4 whole entry, species assumed): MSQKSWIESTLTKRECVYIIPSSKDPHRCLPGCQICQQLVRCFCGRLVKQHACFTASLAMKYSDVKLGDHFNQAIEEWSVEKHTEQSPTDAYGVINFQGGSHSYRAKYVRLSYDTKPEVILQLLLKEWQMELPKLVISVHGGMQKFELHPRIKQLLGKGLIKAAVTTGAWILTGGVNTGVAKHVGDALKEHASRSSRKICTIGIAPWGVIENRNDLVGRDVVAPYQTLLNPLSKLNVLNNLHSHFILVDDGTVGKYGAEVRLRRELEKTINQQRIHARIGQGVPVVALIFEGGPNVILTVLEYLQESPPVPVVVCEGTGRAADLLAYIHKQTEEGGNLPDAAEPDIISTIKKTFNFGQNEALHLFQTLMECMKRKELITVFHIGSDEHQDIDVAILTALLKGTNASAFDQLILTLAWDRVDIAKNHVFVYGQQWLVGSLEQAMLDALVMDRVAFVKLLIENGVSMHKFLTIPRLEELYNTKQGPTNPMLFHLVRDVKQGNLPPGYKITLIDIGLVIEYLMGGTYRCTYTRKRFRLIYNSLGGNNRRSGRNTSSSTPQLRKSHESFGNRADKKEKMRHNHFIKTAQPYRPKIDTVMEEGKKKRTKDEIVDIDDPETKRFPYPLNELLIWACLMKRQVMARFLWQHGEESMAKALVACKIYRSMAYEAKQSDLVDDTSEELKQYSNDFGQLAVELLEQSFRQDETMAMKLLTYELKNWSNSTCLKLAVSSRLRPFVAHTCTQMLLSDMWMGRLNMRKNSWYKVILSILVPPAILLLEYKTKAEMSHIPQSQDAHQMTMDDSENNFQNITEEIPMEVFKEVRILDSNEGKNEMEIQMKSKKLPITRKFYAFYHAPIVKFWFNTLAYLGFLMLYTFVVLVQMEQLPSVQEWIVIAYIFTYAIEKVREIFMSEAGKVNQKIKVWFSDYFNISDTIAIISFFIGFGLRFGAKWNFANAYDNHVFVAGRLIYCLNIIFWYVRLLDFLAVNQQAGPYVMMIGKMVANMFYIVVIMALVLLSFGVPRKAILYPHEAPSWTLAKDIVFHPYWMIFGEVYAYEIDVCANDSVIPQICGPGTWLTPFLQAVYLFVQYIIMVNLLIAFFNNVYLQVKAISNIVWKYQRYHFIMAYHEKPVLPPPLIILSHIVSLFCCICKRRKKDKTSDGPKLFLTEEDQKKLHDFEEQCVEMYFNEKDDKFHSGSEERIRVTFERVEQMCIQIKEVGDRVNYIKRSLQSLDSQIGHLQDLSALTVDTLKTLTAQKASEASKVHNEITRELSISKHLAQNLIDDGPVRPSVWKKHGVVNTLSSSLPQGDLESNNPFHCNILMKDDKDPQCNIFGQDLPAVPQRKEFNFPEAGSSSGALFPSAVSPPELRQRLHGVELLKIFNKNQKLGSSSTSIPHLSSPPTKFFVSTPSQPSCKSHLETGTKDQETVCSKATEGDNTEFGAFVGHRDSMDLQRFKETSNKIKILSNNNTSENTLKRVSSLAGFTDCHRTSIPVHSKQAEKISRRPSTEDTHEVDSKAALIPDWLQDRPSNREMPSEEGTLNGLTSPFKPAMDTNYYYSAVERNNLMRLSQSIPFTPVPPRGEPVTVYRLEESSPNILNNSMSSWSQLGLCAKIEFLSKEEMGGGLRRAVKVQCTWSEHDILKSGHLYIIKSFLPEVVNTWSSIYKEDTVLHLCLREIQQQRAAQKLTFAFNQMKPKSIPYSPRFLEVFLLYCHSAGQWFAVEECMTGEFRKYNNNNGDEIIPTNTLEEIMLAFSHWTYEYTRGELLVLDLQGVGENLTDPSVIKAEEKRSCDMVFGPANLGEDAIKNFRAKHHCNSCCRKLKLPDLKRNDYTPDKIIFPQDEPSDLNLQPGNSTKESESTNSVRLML

SMILES	IC50 [µM]
Nc1ncnc2c1ncn2[C@@H]1O[C@H](COP(=O)(O)OP(=O)(O)OP(=O)(O)O)[C@@H](O)[C@H]1O [MgATP]	~600
[Mg+2] [Mg^2+]	~600
